The supplement of paper PMC10307832

How the values were obtained:
Assay in all cases: relative viability (nuclei count vs DMSO), 5 days (fraction); higher = more cells survive
Sorafenib + Palbociclib = compound: CNC(=O)c1cc(Oc2ccc(NC(=O)Nc3ccc(Cl)c(C(F)(F)F)c3)cc2)ccn1 [Sorafenib] + CC(=O)c1c(C)c2cnc(Nc3ccc(N4CCNCC4)cn3)nc2n(C2CCCC2)c1=O [Palbociclib] (partner 0.5 µM)
Procedure, shortened: (§1)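 A single step with final 0.05% Triton X-100, 1% formaldehyde and 1 ug/ml Hoechst fixed the cells and stained nuclei 5 days after treatment. Lung cancer cell lines in 1536-well plates had been treated by pin tool the day after seeding with one drug alone or a fixed anchor-drug dose plus five library-drug doses (not always all listed) in √10 steps, and nuclei were counted on 4× images. Relative viability is the ratio of nuclei in treated wells to nuclei in vehicle wells, taken as the median of duplicate plates.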

Sorafenib + Bortezomib = compound: CNC(=O)c1cc(Oc2ccc(NC(=O)Nc3ccc(Cl)c(C(F)(F)F)c3)cc2)ccn1 [Sorafenib] + CC(C)C[C@H](NC(=O)[C@H](Cc1ccccc1)NC(=O)c1cnccn1)B(O)O [Bortezomib] (partner 0.002 µM)
Procedure, shortened: as §1

Sorafenib + Alpelisib = compound: CNC(=O)c1cc(Oc2ccc(NC(=O)Nc3ccc(Cl)c(C(F)(F)F)c3)cc2)ccn1 [Sorafenib] + Cc1nc(NC(=O)N2CCC[C@H]2C(N)=O)sc1-c1ccnc(C(C)(C)C(F)(F)F)c1 [Alpelisib] (partner 2 µM)
Procedure, shortened: as §1

Sorafenib + Phenformin = compound: CNC(=O)c1cc(Oc2ccc(NC(=O)Nc3ccc(Cl)c(C(F)(F)F)c3)cc2)ccn1 [Sorafenib] + N=C(N)NC(=N)NCCc1ccccc1 [Phenformin] (partner 250 µM)
Procedure, shortened: as §1

Sorafenib + Pemetrexed = compound: CNC(=O)c1cc(Oc2ccc(NC(=O)Nc3ccc(Cl)c(C(F)(F)F)c3)cc2)ccn1 [Sorafenib] + Nc1nc2[nH]cc(CCc3ccc(C(=O)N[C@@H](CCC(=O)O)C(=O)O)cc3)c2c(=O)[nH]1 [Pemetrexed] (partner 0.2 µM)
Procedure, shortened: as §1

Cell Line	relative viability (Sorafenib + Palbociclib; first compound 0.08 µM)	relative viability (Sorafenib + Palbociclib; first compound 0.253 µM)	relative viability (Sorafenib + Palbociclib; first compound 2.53 µM)	relative viability (Sorafenib + Palbociclib; first compound 8 µM)	relative viability (Sorafenib + Bortezomib; first compound 0.08 µM)	relative viability (Sorafenib + Bortezomib; first compound 0.253 µM)	relative viability (Sorafenib + Bortezomib; first compound 2.53 µM)	relative viability (Sorafenib + Bortezomib; first compound 8 µM)	relative viability (Sorafenib + Alpelisib; first compound 0.08 µM)	relative viability (Sorafenib + Alpelisib; first compound 0.253 µM)	relative viability (Sorafenib + Alpelisib; first compound 2.53 µM)	relative viability (Sorafenib + Phenformin; first compound 0.253 µM)	relative viability (Sorafenib + Phenformin; first compound 2.53 µM)	relative viability (Sorafenib + Phenformin; first compound 8 µM)	relative viability (Sorafenib + Pemetrexed; first compound 0.08 µM)	relative viability (Sorafenib + Pemetrexed; first compound 0.253 µM)	relative viability (Sorafenib + Pemetrexed; first compound 2.53 µM)	relative viability (Sorafenib + Pemetrexed; first compound 8 µM)	relative viability (Sorafenib + Alpelisib; first compound 8 µM)	relative viability (Sorafenib + Phenformin; first compound 0.08 µM)
201T	0.34	0.343	0.36	0.357	1.1	1.07	1.19	1.18	1	1.05	1.13	0.423	0.42	0.432	0.334	0.302	0.334	0.328	–	–
A-427	0.531	0.553	0.589	0.474	0.953	0.922	0.96	0.817	1.08	1.07	1.06	0.389	0.333	0.115	0.926	0.919	1.05	0.954	0.925	0.444
ABC-1	0.712	0.682	0.854	0.725	0.36	0.253	0.321	0.336	1.01	0.945	1.11	0.234	0.247	0.233	–	–	–	–	1.03	0.218
BEN	0.48	0.513	0.413	0.516	0.951	0.659	–	0.631	1.1	0.889	0.906	0.254	0.239	0.205	0.839	0.657	–	0.674	0.798	0.278
CAL-12T	0.512	0.396	0.489	0.247	1.04	0.689	1.24	0.465	1.18	1.09	0.971	0.54	0.583	0.202	1.22	1.1	1.01	1.13	0.705	0.641
COR-L23	0.301	0.288	0.319	0.264	1.11	0.964	0.888	0.877	0.83	0.758	0.79	0.419	0.455	0.287	0.2	0.199	0.19	0.212	0.637	0.44
COR-L 105	0.452	0.365	0.411	0.384	–	0.806	0.994	0.478	1.09	0.95	0.966	0.458	0.561	0.441	1.26	1.31	1.32	0.852	0.793	0.534
ChaGo-K-1	0.908	0.894	–	0.679	1.18	0.781	1.16	0.451	–	–	–	0.405	0.469	0.299	0.247	0.258	0.264	0.248	–	0.552
EKVX	0.425	0.43	0.432	0.321	1.19	0.879	0.962	0.994	1.09	0.886	0.872	0.24	0.24	0.201	0.511	0.365	0.375	0.389	0.828	0.243
EMC-BAC-2	0.519	0.439	0.467	0.477	1.06	0.917	1.07	1.02	–	0.73	0.707	0.464	0.507	0.316	0.438	0.389	0.41	0.516	0.702	0.504
EPLC-272H	0.332	0.338	0.486	0.295	0.945	0.872	0.959	0.696	0.928	0.986	1.15	0.264	0.294	0.315	0.412	0.295	0.318	0.542	0.898	0.402
H3255	0.33	0.3	0.306	0.287	0.841	0.706	1.05	0.726	0.851	0.639	0.802	0.357	0.406	–	0.636	0.554	0.587	0.47	0.552	1.02
HARA	0.295	0.286	0.303	0.339	1.18	1.02	1.16	1.02	0.991	0.773	0.856	0.456	0.41	0.307	0.246	0.237	0.257	0.233	0.797	0.498
HCC-15	0.77	0.619	0.708	0.48	0.996	0.83	0.912	0.807	0.86	0.932	0.955	0.403	0.442	0.212	0.253	0.211	0.22	0.145	0.575	0.501
HCC-44	0.96	0.771	0.858	0.834	0.814	0.805	0.865	0.699	0.833	0.785	0.793	0.153	0.311	0.207	0.652	0.607	0.599	0.61	0.649	0.269
HCC-78	0.468	0.471	0.529	0.476	0.517	0.427	–	0.585	0.373	0.297	0.367	0.598	–	0.713	0.936	0.879	0.847	0.888	0.423	0.812
HCC-366	0.393	0.424	0.323	0.353	1.05	0.98	0.991	0.831	0.563	0.484	0.429	0.507	0.539	0.559	0.158	0.124	0.127	0.174	0.307	0.598
HCC-827	0.572	0.478	0.492	0.514	1.06	1.04	0.929	–	1.07	–	0.988	0.399	0.447	0.424	0.255	0.288	0.281	0.251	0.826	0.447
HOP-62	0.454	0.372	0.358	0.263	0.639	0.64	–	0.232	0.995	0.775	0.765	0.558	0.54	0.369	0.324	0.303	0.193	0.135	0.794	0.682

Cell Line	relative viability (Sorafenib + Palbociclib; first compound 0.08 µM)	relative viability (Sorafenib + Palbociclib; first compound 0.253 µM)	relative viability (Sorafenib + Palbociclib; first compound 2.53 µM)	relative viability (Sorafenib + Palbociclib; first compound 8 µM)	relative viability (Sorafenib + Bortezomib; first compound 0.08 µM)	relative viability (Sorafenib + Bortezomib; first compound 0.253 µM)	relative viability (Sorafenib + Bortezomib; first compound 2.53 µM)	relative viability (Sorafenib + Bortezomib; first compound 8 µM)	relative viability (Sorafenib + Alpelisib; first compound 0.08 µM)	relative viability (Sorafenib + Alpelisib; first compound 0.253 µM)	relative viability (Sorafenib + Alpelisib; first compound 2.53 µM)	relative viability (Sorafenib + Phenformin; first compound 0.253 µM)	relative viability (Sorafenib + Phenformin; first compound 2.53 µM)	relative viability (Sorafenib + Phenformin; first compound 8 µM)	relative viability (Sorafenib + Pemetrexed; first compound 0.08 µM)	relative viability (Sorafenib + Pemetrexed; first compound 0.253 µM)	relative viability (Sorafenib + Pemetrexed; first compound 2.53 µM)	relative viability (Sorafenib + Pemetrexed; first compound 8 µM)	relative viability (Sorafenib + Alpelisib; first compound 8 µM)	relative viability (Sorafenib + Phenformin; first compound 0.08 µM)
IA-LM	–	–	–	–	0.704	0.363	0.458	0.408	0.714	0.547	0.431	–	–	–	–	–	–	–	0.442	–
LC-2-ad	0.54	0.456	0.447	0.393	1.25	1.01	0.914	0.618	1.02	0.863	–	0.495	0.613	0.453	0.305	0.293	0.258	0.274	0.678	0.595
LCLC-97TM1	0.251	0.195	0.182	0.184	0.725	0.623	0.992	0.73	0.237	0.247	0.184	0.377	0.325	0.356	0.154	0.168	0.118	0.226	0.198	0.413
LCLC-103H	0.415	0.461	0.479	0.52	1.08	1.23	1.05	1.08	1.06	0.991	0.893	0.309	0.336	0.344	0.526	0.437	0.422	0.451	1.18	0.401
LK-2	0.703	0.588	0.528	0.542	–	–	–	–	1.06	–	0.89	0.274	0.38	0.0899	0.331	0.254	0.303	0.194	0.647	0.562
LOU-NH91	0.533	0.52	0.55	0.533	0.548	0.454	0.552	0.537	0.896	0.791	0.885	0.678	0.73	0.489	0.419	0.37	0.436	–	0.589	0.784
NCI-H358	0.137	0.127	0.182	0.128	–	–	–	–	1.06	1.12	0.934	0.392	0.468	0.146	0.168	0.146	0.145	0.144	0.337	0.442
NCI-H596	–	–	–	–	1.02	–	1.19	1.14	0.471	0.447	0.521	0.587	0.665	0.86	0.495	0.47	0.563	0.52	0.509	0.787
NCI-H727	0.688	0.616	0.681	0.569	0.775	0.618	0.699	0.516	0.623	0.579	0.702	0.416	0.439	0.507	–	–	–	–	0.326	0.634
NCI-H1395	0.696	–	0.613	0.644	–	–	–	–	1.26	–	0.981	0.407	0.453	0.392	1	–	0.917	–	0.695	0.51
NCI-H1563	–	–	–	–	–	0.905	0.976	0.508	0.903	1	0.894	0.643	0.749	0.532	0.969	0.654	0.775	0.659	0.728	0.709
NCI-H1650	0.363	0.493	0.401	0.26	0.239	0.217	0.225	0.212	–	–	–	0.456	0.564	0.164	0.405	0.454	0.531	0.334	–	0.557
NCI-H1703	–	–	–	–	0.193	0.207	0.183	0.151	0.301	0.176	0.189	–	–	–	–	–	–	–	0.156	–
NCI-H1793	0.354	0.376	0.465	0.411	–	–	–	–	–	0.727	1.01	0.329	0.418	0.293	1.24	–	1.11	0.529	0.511	0.453
NCI-H1944	0.339	0.346	0.371	0.306	–	–	–	–	0.882	0.909	1.01	0.188	0.21	0.144	0.697	0.557	0.735	0.438	0.706	0.207
NCI-H2170	0.379	0.327	0.401	0.325	–	–	–	–	0.792	0.843	0.865	0.437	0.43	0.361	0.258	0.278	0.27	0.208	0.754	0.403
NCI-H2342	0.53	0.523	0.556	0.533	–	–	–	–	–	–	–	0.487	0.528	0.381	–	0.729	0.78	0.532	–	0.67
SK-MES-1	0.301	0.292	0.292	0.289	–	–	–	–	0.957	0.877	0.854	0.62	0.596	0.424	0.999	0.84	0.881	–	0.873	0.689
